#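 How tested: cells in 96-well plates exposed to compound for 48 hours at five concentrations. TGI: concentration producing complete growth inhibition.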
# Key:
# Assay in all cases: DTP human tumour cell line panel, 48 h
# SW-620 colon = tested on: SW-620 colon
# HOP-92 NSCLC = tested on: HOP-92 NSCLC
# OVCAR-8 ovarian = tested on: OVCAR-8 ovarian
# LOX IMVI melanoma = tested on: LOX IMVI melanoma
# DU-145 prostate = tested on: DU-145 prostate
# HT29 colon = tested on: HT29 colon
# OVCAR-3 ovarian = tested on: OVCAR-3 ovarian
# SK-MEL-5 melanoma = tested on: SK-MEL-5 melanoma
# NCI/ADR-RES ovarian = tested on: NCI/ADR-RES ovarian
# SK-OV-3 ovarian = tested on: SK-OV-3 ovarian
# CCRF-CEM leukemia = tested on: CCRF-CEM leukemia
# NCI-H226 lung = tested on: NCI-H226 lung
# OVCAR-5 ovarian = tested on: OVCAR-5 ovarian
# MDA-MB-435 = tested on: MDA-MB-435
# SK-MEL-28 melanoma = tested on: SK-MEL-28 melanoma
# SNB-75 CNS = tested on: SNB-75 CNS
# SNB-19 CNS = tested on: SNB-19 CNS
# SN12C renal = tested on: SN12C renal
# MOLT-4 leukemia = tested on: MOLT-4 leukemia
# IGROV1 ovarian = tested on: IGROV1 ovarian
# NCI-H522 lung = tested on: NCI-H522 lung
# SF-539 CNS = tested on: SF-539 CNS
# PC-3 prostate = tested on: PC-3 prostate
# SF-268 CNS = tested on: SF-268 CNS
# HCT-116 colon = tested on: HCT-116 colon
# KM12 colon = tested on: KM12 colon
# MALME-3M melanoma = tested on: MALME-3M melanoma
# ACHN renal = tested on: ACHN renal
# SK-MEL-2 melanoma = tested on: SK-MEL-2 melanoma
# HS 578T breast = tested on: HS 578T breast
# MDA-N = tested on: MDA-N
# U251 CNS = tested on: U251 CNS
# MCF7 breast = tested on: MCF7 breast
# 786-0 renal = tested on: 786-0 renal
# UACC-257 melanoma = tested on: UACC-257 melanoma
# HCC-2998 colon = tested on: HCC-2998 colon
# EKVX NSCLC = tested on: EKVX NSCLC
# UO-31 renal = tested on: UO-31 renal
# HOP-62 NSCLC = tested on: HOP-62 NSCLC
# COLO 205 colon = tested on: COLO 205 colon
# RPMI-8226 leukemia = tested on: RPMI-8226 leukemia
# UACC-62 melanoma = tested on: UACC-62 melanoma
# HL-60(TB) leukemia = tested on: HL-60(TB) leukemia
# SF-295 CNS = tested on: SF-295 CNS
# HCT-15 colon = tested on: HCT-15 colon
# MDA-MB-231 breast = tested on: MDA-MB-231 breast
# NCI-H23 lung = tested on: NCI-H23 lung
# M14 melanoma = tested on: M14 melanoma
# RXF 393 renal = tested on: RXF 393 renal
# CAKI-1 renal = tested on: CAKI-1 renal
# A549 NSCLC = tested on: A549 NSCLC
# NCI-H460 lung = tested on: NCI-H460 lung
# K-562 leukemia = tested on: K-562 leukemia
smiles,measurement,setting,value
CC1(C)COC(c2ccc(C(=O)c3ccc(Cl)cc3)cc2)=N1,TGI,SW-620 colon,> 100 µM
same,TGI,HOP-92 NSCLC,> 100 µM
same,TGI,OVCAR-8 ovarian,> 100 µM
same,TGI,LOX IMVI melanoma,> 100 µM
same,TGI,DU-145 prostate,> 100 µM
same,TGI,HT29 colon,> 100 µM
same,TGI,OVCAR-3 ovarian,> 100 µM
same,TGI,SK-MEL-5 melanoma,30.5 µM
same,TGI,NCI/ADR-RES ovarian,> 100 µM
same,TGI,SK-OV-3 ovarian,> 100 µM
same,TGI,CCRF-CEM leukemia,> 100 µM
same,TGI,NCI-H226 lung,> 100 µM
same,TGI,OVCAR-5 ovarian,> 100 µM
same,TGI,MDA-MB-435,> 100 µM
same,TGI,SK-MEL-28 melanoma,> 100 µM
same,TGI,SNB-75 CNS,> 100 µM
same,TGI,SNB-19 CNS,> 100 µM
same,TGI,SN12C renal,> 100 µM
same,TGI,MOLT-4 leukemia,> 100 µM
same,TGI,IGROV1 ovarian,> 100 µM
same,TGI,NCI-H522 lung,> 100 µM
same,TGI,SF-539 CNS,> 100 µM
same,TGI,PC-3 prostate,> 100 µM
same,TGI,SF-268 CNS,> 100 µM
same,TGI,HCT-116 colon,> 100 µM
same,TGI,KM12 colon,> 100 µM
same,TGI,MALME-3M melanoma,> 100 µM
same,TGI,ACHN renal,> 100 µM
same,TGI,SK-MEL-2 melanoma,> 100 µM
same,TGI,HS 578T breast,> 100 µM
same,TGI,MDA-N,> 100 µM
same,TGI,U251 CNS,> 100 µM
same,TGI,MCF7 breast,> 100 µM
same,TGI,786-0 renal,> 100 µM
same,TGI,UACC-257 melanoma,64.9 µM
same,TGI,HCC-2998 colon,> 100 µM
same,TGI,EKVX NSCLC,> 100 µM
same,TGI,UO-31 renal,> 100 µM
same,TGI,HOP-62 NSCLC,> 100 µM
same,TGI,COLO 205 colon,> 100 µM
same,TGI,RPMI-8226 leukemia,> 100 µM
same,TGI,UACC-62 melanoma,> 100 µM
same,TGI,HL-60(TB) leukemia,> 100 µM
same,TGI,SF-295 CNS,> 100 µM
same,TGI,HCT-15 colon,> 100 µM
same,TGI,MDA-MB-231 breast,> 100 µM
same,TGI,NCI-H23 lung,> 100 µM
same,TGI,M14 melanoma,> 100 µM
same,TGI,RXF 393 renal,> 100 µM
same,TGI,CAKI-1 renal,> 100 µM
same,TGI,A549 NSCLC,> 100 µM
same,TGI,NCI-H460 lung,> 100 µM
same,TGI,K-562 leukemia,> 100 µM

# — PubChem BioAssay (NCI)
